# Patent US20140094484A1, “SUSTAINED DELIVERY FORMULATIONS OF RAPAMYCIN COMPOUNDS” (QLT Inc., priority 2012, published 2014)
# Entries after “also recorded” stand apart in the source; their conditions may differ.
# Tests used:
# [1] = test system: choroidal neovascularization (CNV); experiment: Laser-induced CNV rat model, fluorescein angiography evaluation; format: in vivo, Long Evans rats; conditions: for effect on CNV development: intravitreal injection immediately after laser photocoagulation
# Experimental: (§1) Thermal laser infrared light (diode laser 810 nm) at 200 mW for 0.075 seconds was delivered to the fundus of Long Evans rats using a slit lamp and a slit lamp adaptor. A total of 6 lesions with 75 μm diameter were placed in a circular pattern surrounding the optic disc on the posterior pole.
# (§2) Intravitreal injection was performed immediately after laser photocoagulation. Briefly, three days prior to the injection, 0.3% Ciloxan ointment was applied to the eye once daily. At the time of injection, the eye pocket was irrigated and the conjunctiva swabbed with 1.0% Betadine solution. A 30-gauge needle connected to a 10-4, Hamilton syringe that contained 5 μL carboxymethylcellulose (CMC)-based Rapamycin suspension (0.5, 5, 10 or 40 mg/mL) or CMC vehicle alone was inserted 1 mm posterior to the corneoscleral limbus. The injection began when the bevel of the needle faced down and reached the vitreous about 1-2 mm in depth with the visual aid of a dissecting microscope. After injection, topical 0.3% Ciloxan ointment was applied to the eye once daily for 2 days.
# FA was performed on the 14th day after intravitreal injection of Rapamycin. Briefly, a 25-gauge butterfly catheter was placed in the tail vein on an anesthetized animal and a Heparin-Lock solution (0.50 mL of 10,000 IU/mL Heparin Sodium with 0.95 mL 0.9% Saline) was used to fill the catheter line to maintain intravenous access. A dose of 10 mg/kg of Diofluor 10% (Fluorescein Sodium 10%) was delivered through the tail vein, followed by a flush of sterile saline to ensure full delivery of Diofluor 10%. An infusion pump (Becton-Dickinson) connected to a 60 cc syringe was used to infuse the Diofluor 10% at a constant rate of 6 mL/min (8.4-13.2 pounds per square inches) to allow for consistency in the synchronization of the fluorescein bolus injection and the angiogram acquisition. Photographs were taken with a fluorescence fundus camera at 1-10, 30, 60, 90, 180, and 300 sec after Diofluor 10% administration. The leakiness of CNV was assessed by two independent readers masked to the treatment.
# [2] = test system: choroidal neovascularization (CNV); experiment: Laser-induced CNV rat model, histological evaluation (CNV area, CD31 positive cell count); format: in vivo, Long Evans rats
# Experimental: as §1
# as §2, with “A 30-gauge needle connected to a 10-4, Hamilton syringe that contained 5 μL carboxymethylcellulose (CMC)-based Rapamycin suspension (0.5, 5, 10 or 40 mg/mL) or CMC vehicle alone was inserted 1 mm posterior to the corneoscleral limbus.” left out
# Eyes were enucleated and chorioretinal tissues that contained the CNV lesions prepared and fixed for about 18 hours in formic acid alcohol, and then replaced with 70% alcohol until the specimen was processed to wax by a standard method. Slides were stained with mouse anti rat CD31 (Chemicon, UK) by a standard immunohistochemistry protocol. This briefly consisted of removal of endogenous peroxidase enzymes with methanol and hydrogen peroxide, primary antibody as above, and the secondary donkey antibody anti mouse conjugated to biotin. Streptavidin ABC and Vector VIP substrate (Vector labs, Burlingame Calif.) were further added. Haematoxylin was used as a counterstain. Representative images before and after the center of each CNV lesion were taken using the 20× objective of an Olympus BX61 microscope fitted with a Spot RT colour camera (Diagnostic instruments, MI USA). Each image was applied to the standard image analysis macro in the software Image pro to identify the mean of lesion area for each CNV and the mean of CD31 positive cell counts (i.e. endothelial cells) within the CNV lesion area. All measurements were generated by two independent readers masked to the treatments. The data was analyzed in Excel and GraphPad Prism. The 80% correlation found between readers was deemed acceptable.
# [3] = test system: THP-1 cells (monocytic cell line); experiment: TNFalpha release from Lipopolysaccharide and IFNgamma treated THP-1 cells; format: cell-based; conditions: Homo sapiens
# Experimental: (§3) Targeted tissue concentrations were estimated from in vitro experiments assessing the inhibitory effects of rapamycin on endothelial cell proliferation and cytokine release from immune cells. Human umbilical endothelial cells were activated with Vascular Endothelial Growth Factor (VEGF) and incubated with various concentrations of rapamycin. Cell proliferation was evaluated by quantifying [3}H-thymidine incorporation after 48 hours. […] The IC50 for the release of TNFalpha from Lipopolysaccharide and IFNgamma treated THP-1 cells (monocytic cell line) was ˜1 nM and the IC50 for the release of IFNgamma from human peripheral blood T cells stimulated with phytohemagglutanin was ˜2 nM.
# [4] = test system: human peripheral blood T cells; experiment: IFNgamma release from T cells stimulated with phytohemagglutanin; format: cell-based; conditions: T-cell
# Experimental: as §3
# [5] = test system: Human umbilical endothelial cells; experiment: VEGF-activated endothelial cell proliferation, [3H]-thymidine incorporation; format: cell-based; conditions: [3H]-thymidine incorporation after 48 hours
# Experimental: as §3
# mTOR = experiment: Pharmacodynamic evaluation: Ser235/236 phosphorylation of S6 ribosomal protein in chorioretinal tissues (western blot); format: in vivo, Long Evans rats
# Experimental: Upon euthanasia of the animal, the eyes were cut along the equator, separating the anterior and posterior segments. The vitreous was removed and the remaining back of eye (with intact retina, choroid and sclera) was placed in a labeled Nalgene Cryotube, immediately immersed in liquid nitrogen, and stored at −80° C. until ready to use. Upon lysis, tubes containing tissue were brought to room temperature to thaw. Tissues were lysed in 400 μL of lysis buffer (Cell Signaling CAT #: 9803) with protease inhibitor cocktail (Calbiochem CAT #: 539131) and beads in Matrix D Tubes (Q-biogene, CAT #: 6913-100) in the Fast Prep Instrument. Protein concentration of each sample was determined using the Pierce BCA Protein Determination Kit (Pierce, CAT #: 23225) and BSA as a standard. Samples were analyzed by SDS-PAGE, followed by western blotting. Primary antibodies included antibodies against phosphorylated S6 ribosomal protein, S6 ribosomal protein, and beta-actin antibody. Secondary antibodies included goat anti-Rabbit HRP linked antibodies, or Goat anti-Mouse HRP linked antibodies. Bound antibodies were detected using ECL or ECL plus Western Blotting Reagents. Densitometric evaluation was performed on blots scanned by Bio-Rad Multi-Analyst Software, and analyzed in MS Excel and GraphPad Prism.
# Rapamycin inhibits mTOR activity, which then down-regulates Ser235/236 phosphorylation of the downstream target of mTOR, the S6 ribosomal protein. In order to evaluate the pharmacodynamic response of intravitreally administered rapamycin in the eye, the serine phosphorylation of S6 protein extracted from chorioretinal tissues was analyzed by western blot, and standardized by the total amount of S6 protein. […] The inhibitory effect of rapamycin on S6 phosphorylation occurred within the first 24 h and lasted for 7 days post-dosing, the longest follow-up timepoint.
structure (smiles),measurement,setting,value
"CC1(C)O[C@@H]2C[C@H]3[C@@H]4CCC5=CC(=O)C=C[C@]5(C)[C@@]4(F)[C@@H](O)C[C@]3(C)[C@]2(C(=O)CO)O1 [triamcinolone acetonide (TA), triamcinolone acetonide]",incidence of leaky CNV at the 14-day follow-up,"[1]; intravitreal dose of 200 μg, rat",10%
same,inhibition of CNV area,[2]; TA intravitreal 200 μg,approximately 50%
same,inhibition of endothelial cell count,[2]; TA intravitreal 200 μg,~60%
"CO[C@H]1C[C@@H]2CC[C@@H](C)[C@@](O)(O2)C(=O)C(=O)N2CCCC[C@H]2C(=O)O[C@H]([C@H](C)C[C@@H]2CC[C@@H](O)[C@H](OC)C2)CC(=O)[C@H](C)/C=C(\C)[C@@H](O)[C@@H](OC)C(=O)[C@H](C)C[C@H](C)/C=C/C=C/C=C/1C [rapamycin, Rapamycin]",IC50,[3],~1 nM
same,IC50,[4],~2 nM
same,IC50,[5],69 nM
same,response in the rat CNV model,[1]; 5 μg intravitreally injected,nearly a complete response
same,effect on CNV development,[1]; rat,dose dependent inhibition of CNV development
same,effect on CNV development,"[1]; rat, listed as Rapamycin",potent inhibitor of CNV; also recorded: inhibited the development of CNV
same,incidence of developing leaky CNV 2 weeks after laser photocoagulation,"[1]; single intravitreal injection of 0.5 μg rapamycin in CMC, rat",65%
same,incidence of developing leaky CNV 2 weeks after laser photocoagulation,"[1]; single intravitreal injection of 5 μg rapamycin in CMC, rat",5%
same,incidence of developing leaky CNV 2 weeks after laser photocoagulation,"[1]; single intravitreal injection of 50 μg rapamycin in CMC, rat",2%
same,"level of phosphorylated Ser235/236 on S6 ribosomal protein, standardized by total S6 protein","mTOR; intravitreal, chorioretinal tissues, day 1, 3, 7 post-dosing, vs untreated or vehicle injected eyes",significantly reduced
same,time within which the inhibitory effect on S6 phosphorylation occurred,"mTOR; intravitreal, rat",≤ 24 h
same,time the inhibitory effect on S6 phosphorylation lasted post-dosing,"mTOR; intravitreal, rat, longest follow-up timepoint",7 days
same,activation of its target mTOR,mTOR; rat model of laser-induced CNV,suppressed the activation of its target mTOR at all tested time points
same,reduction in CNV area compared to the vehicle group,[2]; 0.5 μg intravitreal,15%
same,reduction in CNV area compared to the vehicle group,[2]; 5 μg intravitreal,55%
same,reduction in CNV area compared to the vehicle group,[2]; 50 μg intravitreal,50%
same,overall reduction in the number of endothelial cells within the CNV area compared to the vehicle group,"[2]; 50 μg, 5 μg and 0.5 μg intravitreal",50-60%
same,CNV area and number of endothelial cells in the CNV lesions after treatment,"[2]; intravitreal 50, 5, 0.5 μg",reduced after rapamycin treatment in a dose-dependent manner
